From US20230151025A1, “SUBSTITUTED THIAZOLOPYRIDINES, SALTS THEREOF AND THEIR USE AS HERBICIDALLY ACTIVE SUBSTANCES” (Bayer Aktiengesellschaft, priority 2020, published 2023)

How the values were obtained:
Type in all cases: in vivo
[1] = test system: Lolium rigidum (LOLRI); test: Herbicidal pre-emergence action (C), 320 g/ha; settings: ca. 3 weeks
Method in brief: (§1)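 Sandy loam pots, seeds covered with soil → WP/EC compound sprayed on soil surface (aq., +0.5% additive, 600 l/ha) → greenhouse, optimum growth → visual herbicidal effect (%) at ca. 3 wk vs untreated.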

[2] = test system: Veronica persica (VERPE); test: Herbicidal pre-emergence action (C), 320 g/ha; settings: ca. 3 weeks
Method in brief: as §1

[3] = test system: Echinochloa crus-galli (ECHCG); test: Herbicidal pre-emergence action (C), 320 g/ha; settings: ca. 3 weeks
Method in brief: as §1

[4] = test system: Setaria viridis (SETVI); test: Herbicidal pre-emergence action (C), 320 g/ha; settings: ca. 3 weeks
Method in brief: as §1

[5] = test system: Amaranthus retroflexus (AMARE); test: Herbicidal pre-emergence action (C), 320 g/ha; settings: ca. 3 weeks
Method in brief: as §1

[6] = test system: Alopecurus myosuroides (ALOMY); test: Herbicidal pre-emergence action (C), 320 g/ha; settings: ca. 3 weeks
Method in brief: as §1

[7] = test system: Veronica persica (VERPE); test: Herbicidal post-emergence action (D), 320 g/ha; settings: ca. 3 weeks
Method in brief: (§2)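 Visual % herbicidal effect vs untreated controls (100% = dead, 0% = like control), rated ca. 3 weeks after post-emergence spray. Plants treated at single-leaf stage, 2 to 3 weeks after sowing in sandy loam; aqueous WP/EC spray, 0.5% additive, 600 l water/ha.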

[8] = test system: Polygonum convolvulus (POLCO); test: Herbicidal post-emergence action (D), 320 g/ha; settings: ca. 3 weeks
Method in brief: as §2

[9] = test system: Alopecurus myosuroides (ALOMY); test: Herbicidal post-emergence action (D), 320 g/ha; settings: ca. 3 weeks
Method in brief: as §2

[10] = test system: Stellaria media (STEME); test: Herbicidal pre-emergence action (A), 1280 g/ha; settings: visual grading after ca. 3 weeks vs untreated controls
Method in brief: (§3)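 Seeds were sown in sandy loam pots (one mono- and one dicot weed per pot) and covered with soil; WP or EC formulations were applied to the soil surface as aqueous suspension/emulsion with 0.5% additive at 600 l water/ha. Damage was scored visually after ca. 3 weeks versus untreated controls (0% = control, 100% = dead).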

[11] = test system: Lolium rigidum (LOLRI); test: Herbicidal pre-emergence action (A), 1280 g/ha; settings: visual grading after ca. 3 weeks vs untreated controls, 100% = plants have died off, 0% = as control plants
Method in brief: as §3

[12] = test system: Veronica persica (VERPE); test: Herbicidal pre-emergence action (A), 1280 g/ha; settings: visual grading after ca. 3 weeks vs untreated controls
Method in brief: as §3

[13] = test system: Echinochloa crus-galli (ECHCG); test: Herbicidal pre-emergence action (A), 1280 g/ha; settings: visual grading after ca. 3 weeks vs untreated controls, 100% = plants have died off, 0% = as control plants
Method in brief: as §3

[14] = test system: Poa annua (POAAN); test: Herbicidal pre-emergence action (A), 1280 g/ha; settings: visual grading after ca. 3 weeks vs untreated controls, 100% = plants have died off, 0% = as control plants
Method in brief: as §3

[15] = test system: Kochia scoparia (KCHSC; Bassia scoparia); test: Herbicidal pre-emergence action (A), 1280 g/ha; settings: visual grading after ca. 3 weeks vs untreated controls
Method in brief: as §3

[16] = test system: Setaria viridis (SETVI); test: Herbicidal pre-emergence action (A), 1280 g/ha; settings: visual grading after ca. 3 weeks vs untreated controls
Method in brief: as §3

[17] = test system: Matricaria inodora (MATIN); test: Herbicidal pre-emergence action (A), 1280 g/ha; settings: visual grading after ca. 3 weeks vs untreated controls
Method in brief: as §3

[18] = test system: Digitaria sanguinalis (DIGSA); test: Herbicidal pre-emergence action (A), 1280 g/ha; settings: visual grading after ca. 3 weeks vs untreated controls, 100% = plants have died off, 0% = as control plants
Method in brief: as §3

[19] = test system: Amaranthus retroflexus (AMARE); test: Herbicidal pre-emergence action (A), 1280 g/ha; settings: visual grading after ca. 3 weeks vs untreated controls
Method in brief: as §3

[20] = test system: Alopecurus myosuroides (ALOMY); test: Herbicidal pre-emergence action (A), 1280 g/ha; settings: visual grading after ca. 3 weeks vs untreated controls, 100% = plants have died off, 0% = as control plants
Method in brief: as §3

[21] = test system: Digitaria sanguinalis (DIGSA); test: Herbicidal pre-emergence action (C), 320 g/ha; settings: ca. 3 weeks
Method in brief: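 Weed and crop seeds sown in sandy loam; WP or EC formulations applied pre-emergence to the soil surface as aqueous suspension/emulsion with 0.5% additive at 600 l water/ha. Greenhouse-grown under optimum conditions; damage visually scored after ca. 3 weeks versus untreated controls (0% = as control, 100% = plants dead).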

[22] = test system: Amaranthus retroflexus (AMARE); test: Herbicidal post-emergence action (D), 320 g/ha; settings: ca. 3 weeks
Method in brief: as §2

[23] = test system: Abutilon theophrasti (ABUTH); test: Herbicidal pre-emergence action (A), 1280 g/ha; settings: visual grading after ca. 3 weeks vs untreated controls, 100% = plants have died off, 0% = as control plants
Method in brief: as §3

[24] = test system: Echinochloa crus-galli (ECHCG); test: Herbicidal post-emergence action (D), 320 g/ha; settings: ca. 3 weeks
Method in brief: as §2

| Structure (SMILES) | herbicidal effect LOLRI [1] [%] | herbicidal effect VERPE [2] [%] | herbicidal effect ECHCG [3] [%] | herbicidal effect SETVI [4] [%] | herbicidal effect AMARE [5] [%] | herbicidal effect ALOMY [6] [%] | herbicidal effect VERPE [7] [%] | herbicidal effect ALOMY [9] [%] | herbicidal effect STEME [10] [%] | LOLRI, herbicidal effect in percent (%) [11] [%] | herbicidal effect VERPE [12] [%] | ECHCG, herbicidal effect in percent (%) [13] [%] | POAAN, herbicidal effect in percent (%) [14] [%] | herbicidal effect KCHSC [15] [%] | herbicidal effect SETVI [16] [%] | herbicidal effect MATIN [17] [%] | DIGSA, herbicidal effect in percent (%) [18] [%] | herbicidal effect AMARE [19] [%] | ALOMY, herbicidal effect in percent (%) [20] [%] | herbicidal effect AMARE [22] [%] | further results |
| --- | --- | --- | --- | --- | --- | --- | --- | --- | --- | --- | --- | --- | --- | --- | --- | --- | --- | --- | --- | --- | --- |
| CCc1cc2scnc2nc1-c1ccc(F)cc1F [Example I-030] | 100 | 90 | 100 | 100 | 90 | 100 | 90 | 80 | 90 | 100 | 100 | 100 | 100 | 100 | 100 | 100 | 90 | 90 | 100 | – | herbicidal effect POLCO [8]: 90%; herbicidal effect DIGSA [21]: 100% |
| Fc1ccccc1-c1nc2ncsc2cc1C1CC1 [Example I-102] | 100 | 80 | 100 | 100 | 90 | 90 | 80 | – | 90 | 100 | 100 | 100 | 100 | 100 | 100 | 100 | 100 | 90 | 100 | 80 | herbicidal effect POLCO [8]: 80%; ABUTH, herbicidal effect in percent (%) [23]: 90% |
| Cc1cc2scnc2nc1-c1ccsc1C [Example I-194] | 100 | 80 | 100 | 100 | 90 | 100 | – | 90 | 100 | 100 | 100 | 100 | 100 | 100 | 100 | 100 | – | 100 | 100 | 80 | herbicidal effect ECHCG [24]: 90% |
| Cc1cc2scnc2nc1-c1sccc1C [Example I-143] | 100 | 90 | 100 | 100 | 90 | 100 | 80 | 90 | 90 | 100 | 100 | 100 | 100 | 90 | 100 | 90 | – | 90 | 100 | 80 | herbicidal effect ECHCG [24]: 80%; ABUTH, herbicidal effect in percent (%) [23]: 90% |
| CCc1cc2scnc2nc1-c1ccccc1C [Example I-093] | 100 | 90 | 100 | 100 | 90 | 100 | 90 | 90 | 100 | 100 | 100 | 90 | 100 | 100 | 100 | 100 | 100 | 90 | 100 | 90 | ABUTH, herbicidal effect in percent (%) [23]: 90%; herbicidal effect DIGSA [21]: 100% |
| Fc1ccccc1-c1ccc2scnc2n1 [Example I-036, 5-(2-fluorophenyl)thiazolo[4,5-b]pyridine] | 100 | 90 | 100 | 100 | 100 | 100 | – | – | 90 | 100 | – | 100 | 100 | – | 100 | 90 | – | 90 | – | – | herbicidal effect ECHCG [24]: 80%; herbicidal effect POLCO [8]: 80%; herbicidal effect DIGSA [21]: 100% |
| COc1ccccc1-c1nc2ncsc2cc1C [Example I-124] | 100 | 90 | 100 | 100 | 90 | 100 | 90 | 90 | 100 | 100 | 100 | 100 | 100 | 100 | 100 | 100 | 100 | 100 | 100 | – | herbicidal effect ECHCG [24]: 80%; ABUTH, herbicidal effect in percent (%) [23]: 100%; herbicidal effect DIGSA [21]: 100% |
| Cc1cc2scnc2nc1-c1cccc(F)c1 [Example I-003, 5-(3-fluorophenyl)-6-methyl-thiazolo[4,5-b]pyridine] | 100 | 90 | 100 | 100 | 80 | 100 | 90 | 90 | 90 | 100 | 90 | 100 | 100 | 100 | 100 | 90 | 100 | 90 | 90 | 80 | herbicidal effect DIGSA [21]: 100% |
| Fc1ccccc1-c1nc2ncsc2cc1I [Example I-188] | 100 | 90 | 100 | 100 | 90 | 100 | 90 | 90 | 90 | 100 | 90 | 100 | 100 | 90 | 100 | 90 | – | – | 100 | 90 | herbicidal effect ECHCG [24]: 100%; herbicidal effect POLCO [8]: 80% |
